The source of these data is BindingDB's records for patent US20250353864 (Blossomhill Therapeutics, 2025).

The target in assay [1] is Epidermal growth factor receptor (Homo sapiens, UniProt P00533). Description: Biochemical Assays for Inhibition of Wild-Type and Mutant EGFRs. The method, then: (§1) Briefly, specific kinase/substrate pairs along with required cofactors were prepared in reaction buffer; 20 mM Hepes pH 7.5, 10 mM […], 1 mM EGTA, 0.02% Brij35, 0.02 mg/ml BSA, 0.1 mM Na3VO4, 2 mM DTT, 1% DMSO. Compounds were delivered into the reaction, followed […] later by addition of a mixture of ATP (Sigma, St. Louis MO) and 33P ATP (Perkin Elmer, Waltham MA) to a final concentration of 10 μM. Reactions were carried out at room temperature for 120 min, followed by spotting of the reactions onto P81 ion exchange filter paper (Whatman Inc., Piscataway, NJ). Unbound phosphate was removed by extensive washing of filters in 0.75% phosphoric acid. […] IC50 values and curve fits were obtained using Prism (GraphPad Software).

Assay [2] has as its target Epidermal growth factor receptor [L858R,T790M,C797S] (Homo sapiens, UniProt P00533, C797S/L858R/T790M). Described as above. The method, then:
as §1

For assay [3], the target named is Epidermal growth factor receptor [L858R] (Homo sapiens, UniProt P00533, L858R). The assay is described as above. The method, then: as §1
Assay [4] addresses Epidermal growth factor receptor [T790M,L858R] (Homo sapiens, UniProt P00533, L858R/T790M). The description is as above. The method, then: as §1
The target in assay [5] is Dual specificity protein kinase CLK1 (Homo sapiens, UniProt P49759). Description: Inhibition of CLK, CLK2, CLK3 and CLK4 Kinase Activity Evaluated at Nanosyn. The method, then: (§2) Table 3: Kinase protein and substrate were pre-diluted in the HEPES assay buffer (100 mM HEPES, pH 7.5, 0.01% Triton X-100, 0.1% BSA, 5 mM MgCl2, […] DTT, […], […] Beta-Glycerophosphate) dispensed into 384 well plate (5 μL per well). Control samples (0%-inhibition in the absence of inhibitor, DMSO only) and 100%-inhibition (in the absence of enzyme) were assembled in replicates of six and were used to calculate %-inhibition in the presence of compounds. Test compounds were added to the protein samples by acoustic dispensing (Labcyte Echo550). Concentration of DMSO was equalized to 1% in all samples. Reactions were initiated by addition of ATP by acoustic dispensing (Labcyte Echo550) and incubated according to assay specific incubation time. After incubation. 5 μL of Promega ADP-Glo reagent was added and incubated for 40 minutes. After 40 minutes, 10 uL of Promega kinase detection reagent was added. After 10 min of incubation with Kinase detection reagent, the luminescence was read on microplate reader (Biotek Synergy).

In assay [6] the target is Dual specificity protein kinase CLK2 (Homo sapiens, UniProt P49760). The assay is described as above. The method, then:
as §2

The target of assay [7] is Dual specificity protein kinase CLK3 (Homo sapiens, UniProt P49761). The description is as above. The method, then: as §2
The target in assay [8] is Dual specificity protein kinase CLK4 (Homo sapiens, UniProt Q9HAZ1). Described as above. The method, then:
as §2

Epidermal growth factor receptor [L858R,T790M,C797S], sequence (P00533 25-1210 T790M/C797S/L858R limits assumed): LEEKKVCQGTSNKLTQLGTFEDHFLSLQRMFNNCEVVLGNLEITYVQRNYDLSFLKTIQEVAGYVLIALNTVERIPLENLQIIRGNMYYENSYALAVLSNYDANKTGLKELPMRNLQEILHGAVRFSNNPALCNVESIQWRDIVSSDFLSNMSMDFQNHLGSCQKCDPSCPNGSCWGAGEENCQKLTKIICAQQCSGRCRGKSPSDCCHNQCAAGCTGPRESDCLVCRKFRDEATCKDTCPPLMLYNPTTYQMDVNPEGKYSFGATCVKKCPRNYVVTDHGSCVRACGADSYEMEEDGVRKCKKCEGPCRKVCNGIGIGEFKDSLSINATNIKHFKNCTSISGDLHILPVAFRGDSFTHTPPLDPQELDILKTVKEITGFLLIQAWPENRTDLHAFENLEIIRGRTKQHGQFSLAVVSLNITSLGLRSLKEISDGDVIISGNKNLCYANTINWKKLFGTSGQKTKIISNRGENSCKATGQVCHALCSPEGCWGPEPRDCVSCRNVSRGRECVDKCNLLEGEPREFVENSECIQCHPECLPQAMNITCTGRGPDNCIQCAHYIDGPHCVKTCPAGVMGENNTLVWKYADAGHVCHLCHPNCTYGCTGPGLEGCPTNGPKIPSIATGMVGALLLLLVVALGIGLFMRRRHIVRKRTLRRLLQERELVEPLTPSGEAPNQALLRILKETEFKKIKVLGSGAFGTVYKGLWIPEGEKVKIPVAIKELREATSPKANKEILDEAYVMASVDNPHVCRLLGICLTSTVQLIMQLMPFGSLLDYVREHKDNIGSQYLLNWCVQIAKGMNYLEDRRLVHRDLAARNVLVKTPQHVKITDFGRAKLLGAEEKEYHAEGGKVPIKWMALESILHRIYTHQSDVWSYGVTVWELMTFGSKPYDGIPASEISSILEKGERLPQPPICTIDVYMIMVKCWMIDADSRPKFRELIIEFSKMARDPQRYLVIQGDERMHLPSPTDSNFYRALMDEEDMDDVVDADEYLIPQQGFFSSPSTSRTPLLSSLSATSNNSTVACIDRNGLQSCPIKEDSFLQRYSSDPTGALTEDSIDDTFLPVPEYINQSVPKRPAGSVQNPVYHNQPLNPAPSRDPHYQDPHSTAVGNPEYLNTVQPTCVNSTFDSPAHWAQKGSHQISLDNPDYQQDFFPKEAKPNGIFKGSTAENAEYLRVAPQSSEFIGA
Epidermal growth factor receptor [T790M,L858R], sequence (P00533 25-1210 T790M/L858R limits assumed): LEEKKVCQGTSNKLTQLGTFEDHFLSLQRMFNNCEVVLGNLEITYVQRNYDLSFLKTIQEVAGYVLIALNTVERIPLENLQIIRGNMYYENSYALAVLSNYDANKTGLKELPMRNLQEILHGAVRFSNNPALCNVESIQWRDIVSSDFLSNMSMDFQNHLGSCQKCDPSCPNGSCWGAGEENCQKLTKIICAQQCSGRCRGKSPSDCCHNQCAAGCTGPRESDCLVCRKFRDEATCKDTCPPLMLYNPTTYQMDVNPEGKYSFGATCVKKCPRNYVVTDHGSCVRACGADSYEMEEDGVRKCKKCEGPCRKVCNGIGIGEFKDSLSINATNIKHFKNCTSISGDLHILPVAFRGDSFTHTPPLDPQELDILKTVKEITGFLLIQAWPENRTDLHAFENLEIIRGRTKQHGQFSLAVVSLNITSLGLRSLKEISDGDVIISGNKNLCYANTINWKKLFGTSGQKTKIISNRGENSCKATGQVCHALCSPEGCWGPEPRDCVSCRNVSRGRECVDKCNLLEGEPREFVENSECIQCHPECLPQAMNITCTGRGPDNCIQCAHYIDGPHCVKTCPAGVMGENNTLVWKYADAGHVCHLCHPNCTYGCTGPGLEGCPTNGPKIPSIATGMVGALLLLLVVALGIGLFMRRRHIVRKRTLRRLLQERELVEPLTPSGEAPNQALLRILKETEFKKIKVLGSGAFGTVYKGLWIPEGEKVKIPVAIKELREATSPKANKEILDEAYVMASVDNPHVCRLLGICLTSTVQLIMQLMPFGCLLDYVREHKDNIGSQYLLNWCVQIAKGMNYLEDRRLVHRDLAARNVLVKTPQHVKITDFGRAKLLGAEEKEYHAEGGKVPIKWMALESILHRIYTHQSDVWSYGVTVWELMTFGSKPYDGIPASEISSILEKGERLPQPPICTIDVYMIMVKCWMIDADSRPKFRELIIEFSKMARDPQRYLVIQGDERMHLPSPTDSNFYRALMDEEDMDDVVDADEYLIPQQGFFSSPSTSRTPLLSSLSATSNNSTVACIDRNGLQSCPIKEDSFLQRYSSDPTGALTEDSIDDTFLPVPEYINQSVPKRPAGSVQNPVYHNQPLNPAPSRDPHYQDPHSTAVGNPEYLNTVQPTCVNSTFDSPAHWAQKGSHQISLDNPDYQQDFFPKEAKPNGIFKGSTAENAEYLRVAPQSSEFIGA
Epidermal growth factor receptor, sequence (P00533 whole entry): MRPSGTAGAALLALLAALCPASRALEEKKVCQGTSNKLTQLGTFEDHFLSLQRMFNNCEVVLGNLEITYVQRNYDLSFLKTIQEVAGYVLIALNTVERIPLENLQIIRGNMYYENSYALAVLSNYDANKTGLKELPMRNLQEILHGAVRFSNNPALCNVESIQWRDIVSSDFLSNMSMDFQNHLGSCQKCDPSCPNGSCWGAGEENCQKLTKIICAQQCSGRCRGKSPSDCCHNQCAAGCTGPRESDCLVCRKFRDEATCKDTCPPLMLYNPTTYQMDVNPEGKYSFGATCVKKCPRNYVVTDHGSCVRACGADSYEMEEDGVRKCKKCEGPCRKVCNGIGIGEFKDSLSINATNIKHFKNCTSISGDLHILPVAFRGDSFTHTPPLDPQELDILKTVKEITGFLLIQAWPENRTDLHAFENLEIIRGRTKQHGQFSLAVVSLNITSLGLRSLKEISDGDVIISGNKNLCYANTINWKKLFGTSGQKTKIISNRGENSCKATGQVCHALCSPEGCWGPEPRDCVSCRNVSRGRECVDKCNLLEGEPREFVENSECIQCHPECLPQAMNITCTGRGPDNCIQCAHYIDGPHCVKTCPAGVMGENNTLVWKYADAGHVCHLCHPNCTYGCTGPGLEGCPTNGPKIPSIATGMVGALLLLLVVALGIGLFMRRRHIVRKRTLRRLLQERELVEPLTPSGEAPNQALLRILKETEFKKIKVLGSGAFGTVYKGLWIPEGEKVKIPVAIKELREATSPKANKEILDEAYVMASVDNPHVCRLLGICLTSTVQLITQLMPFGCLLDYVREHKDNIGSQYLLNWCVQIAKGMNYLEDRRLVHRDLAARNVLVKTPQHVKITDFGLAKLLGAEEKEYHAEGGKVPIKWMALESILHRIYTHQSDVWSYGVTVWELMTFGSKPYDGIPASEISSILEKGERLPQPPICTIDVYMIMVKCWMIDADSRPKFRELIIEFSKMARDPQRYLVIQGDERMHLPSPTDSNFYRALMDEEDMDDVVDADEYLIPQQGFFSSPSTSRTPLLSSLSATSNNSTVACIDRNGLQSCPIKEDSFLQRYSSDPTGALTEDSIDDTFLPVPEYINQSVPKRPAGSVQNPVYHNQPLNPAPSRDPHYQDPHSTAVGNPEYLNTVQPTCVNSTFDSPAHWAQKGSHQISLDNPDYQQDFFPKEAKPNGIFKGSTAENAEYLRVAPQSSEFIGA
Epidermal growth factor receptor [L858R], sequence (P00533 25-1210 L858R limits assumed): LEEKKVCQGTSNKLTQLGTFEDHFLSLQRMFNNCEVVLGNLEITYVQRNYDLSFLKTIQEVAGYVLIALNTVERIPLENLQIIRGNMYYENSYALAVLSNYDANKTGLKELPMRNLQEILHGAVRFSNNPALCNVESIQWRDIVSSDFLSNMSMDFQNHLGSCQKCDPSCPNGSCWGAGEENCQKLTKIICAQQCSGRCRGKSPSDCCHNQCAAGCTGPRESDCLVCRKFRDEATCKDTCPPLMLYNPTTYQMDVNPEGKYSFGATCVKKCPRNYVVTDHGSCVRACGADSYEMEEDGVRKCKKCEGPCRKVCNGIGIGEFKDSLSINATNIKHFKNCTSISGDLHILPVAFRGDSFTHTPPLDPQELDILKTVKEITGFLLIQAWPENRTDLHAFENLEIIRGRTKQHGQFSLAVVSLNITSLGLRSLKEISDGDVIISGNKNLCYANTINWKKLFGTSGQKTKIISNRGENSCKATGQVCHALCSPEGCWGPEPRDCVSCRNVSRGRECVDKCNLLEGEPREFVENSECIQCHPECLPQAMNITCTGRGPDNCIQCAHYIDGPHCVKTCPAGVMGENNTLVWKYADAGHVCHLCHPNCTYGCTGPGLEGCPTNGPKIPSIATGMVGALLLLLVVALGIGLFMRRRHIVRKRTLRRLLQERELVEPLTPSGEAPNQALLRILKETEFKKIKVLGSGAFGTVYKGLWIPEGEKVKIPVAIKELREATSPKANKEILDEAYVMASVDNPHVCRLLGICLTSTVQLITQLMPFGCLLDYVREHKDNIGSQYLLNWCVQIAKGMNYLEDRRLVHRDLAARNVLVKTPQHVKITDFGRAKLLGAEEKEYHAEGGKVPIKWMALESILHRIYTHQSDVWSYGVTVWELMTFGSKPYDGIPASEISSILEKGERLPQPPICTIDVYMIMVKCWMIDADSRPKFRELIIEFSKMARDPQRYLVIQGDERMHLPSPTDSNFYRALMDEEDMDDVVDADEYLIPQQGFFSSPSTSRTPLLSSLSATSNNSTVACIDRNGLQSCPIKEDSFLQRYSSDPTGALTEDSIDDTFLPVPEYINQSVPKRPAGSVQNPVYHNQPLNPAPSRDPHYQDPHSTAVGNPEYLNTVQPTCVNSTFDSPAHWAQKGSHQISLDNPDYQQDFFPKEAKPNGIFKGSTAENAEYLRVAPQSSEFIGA

Turning to `Cc1ccc2c(n1)/C=C/c1n[nH]c3ccc(cc13)-c1cnn(C)c1O[C@@H](C)CCO2` [US20250353864, Example 39], the IC50 (in general, the midpoint of a concentration-inhibition curve) in assay [1] came out at 1070 nM; in assay [2], 35.3 nM; in assay [3], 222 nM.
Take `Cc1c2c(nn1[C@H]1CCN(C)C[C@@H]1O)OCCCOc1c(cnn1C)-c1ccc3[nH]nc(c3c1)/C=C/2` (racemic) [US20250353864, Example 83]: the IC50 in assay [1] came out at 61.5 nM; in assay [2], 5.29 nM; in assay [3], 19 nM; in assay [4], 1.48 nM.
With `Cc1nn(C)c2c1/C=C/c1n[nH]c3ccc(cc13)-c1c(C)nn(C)c1OCCN(C)C2` [US20250353864, Example 47], the IC50 in assay [2] was determined as 170 nM; in assay [3], 822 nM; in assay [4], 79.3 nM; in assay [5] it was 9.92 nM; in assay [6], 48.3 nM; in assay [7], 1000 nM. Moreover, the IC50 in assay [8] came out at 2.7 nM.
Turning to `Cc1c2c(nn1CCN1CCCC1)OCCOC(C)c1c(cnn1C)-c1ccc3[nH]nc(c3c1)/C=C/2` (stereo not given) [US20250353864, Example 84], the IC50 in assay [1] stood at 1080 nM; in assay [2] it was 28.2 nM; in assay [3] it was 285 nM; in assay [4], 30.8 nM.
For `Cc1nn(C)c2c1/C=C/c1n[nH]c3ccc(cc13)-c1cnn(C)c1CN(C)C[C@H](C)O2` (single isomer, unassigned) [US20250353864, Example 97], in that order: 413 nM, 28.5 nM, 132 nM and 10.8 nM.
Regarding `CCc1nn(C)c2c1/C=C/c1n[nH]c3ccc(cc13)-c1cnn(C)c1OCCCO2` [US20250353864, Example 10], the IC50 was 973 nM in assay [1], 42.2 nM in assay [2] and 181 nM in assay [3].
Consider `Cc1c2c(nn1CCN1CCCC1)CN(C)C[C@H](C)Oc1c(cnn1C)-c1ccc3[nH]nc(c3c1)/C=C/2` [US20250353864, Example 89], for which the IC50 amounted to 64 nM in assay [1], 0.45 nM in assay [2], 4.66 nM in assay [3] and 0.06 nM in assay [4].
Turning to `CCOc1nn(CCO)c2c1/C=C/c1n[nH]c3ccc(cc13)-c1cnn(C)c1O[C@H](C)[C@H]1CCCN1C2` (single isomer, unassigned) [US20250353864, Example 241], the values for the IC50 in assay [1] and in assay [2] were 0.4 nM and 0.28 nM, respectively.
In the case of `CCOc1nn(CCO)c2c1/C=C/c1n[nH]c3ccc(cc13)-c1cnn(C)c1OC1CCCN(C2)C1C` (stereo not given) [US20250353864, Example 242], the IC50 in assay [1] came to 381 nM; in assay [2], 4.93 nM; in assay [3], 124 nM; in assay [4], 9.27 nM.
